Measured values taken from patent publication US20260102340A1, “Therapeutic Formulation” (1000739373 Ontario Ltd., priority 2022, published 2026).

Experiment: Stability of CBD formulation in HFA 134a (residual)
Assay type: physicochemical
Conditions: for Residual (% of 5° C. data): Valve Up
Protocol: The stability of a cannabidiol (CBD) formulation in HFA 134a was evaluated over a 6-month period.
The formulation consisted of 3.57% (w/w) CBD, 15% (w/w) ethanol, and HFA 134a. The formulation was packaged in Presspart™ Plasma 14 mL canisters with metering valves 1908 (Aptar™). The canisters were stored in the valve-up orientation for 6 months at 5° C., 25° C., or 40° C. The residual formulation was measured at 1 month and 6 months.

C=C(C)[C@@H]1CCC(C)=C[C@H]1c1c(O)cc(CCCCC)cc1O [CBD, cannabidiol]
Stability of CBD-HFA formulations (5° C., 25° C. and 40° C.): stable
Residual (% of 5° C. data) (Batch OZ210527/DAL/G1, 1 month (n = 3), 25° C.): 100.3 % of 5 °C data
Residual (% of 5° C. data) (Batch OZ210527/DAL/G1, 1 month (n = 3), 40° C.): 98.5 % of 5 °C data
Residual (% of 5° C. data) (Batch OZ210527/DAL/G1, 3.57% CBD, 15% ethanol, HFA 134a, 1 month (n = 3), 5° C.): 100.00 % of 5 °C data
Residual (% of 5° C. data) (Batch OZ210527/DAL/G1, 6 month (n = 4), 25° C.): 93.3 % of 5 °C data
Residual (% of 5° C. data) (Batch OZ210527/DAL/H1, 1 month (n = 3), 25° C.): 100.2 % of 5 °C data
Residual (% of 5° C. data) (Batch OZ210527/DAL/H1, 1 month (n = 3), 40° C.): 98.1 % of 5 °C data
Residual (% of 5° C. data) (Batch OZ210527/DAL/H1, 3.57% CBD, 15% ethanol, HFA 134a, 1 month (n = 3), 5° C.): 100.0 % of 5 °C data
Residual (% of 5° C. data) (Batch OZ210527/DAL/H1, 6 month (n = 4), 25° C.): 93.5 % of 5 °C data
